Experimental findings from patent publication EP0532097A1, “Piperazinyl(sulfon)amide derivatives of camphor as oxytocin antagonists” (MERCK & CO. INC., priority 1991, dated 1993) are described below.

pIC50, pKd: −log10 of the molar value. Like-named read-outs stand apart in the source and are kept apart here.

The target in this experiment is T1, uterine OT receptors (Rattus norvegicus, UniProt P70536).
T1 construct: using a crude membrane preparation of uteri; from tissue; host or cells: uterus of DES-treated rats, crude membrane preparation
T1 sequence (P70536 1-388): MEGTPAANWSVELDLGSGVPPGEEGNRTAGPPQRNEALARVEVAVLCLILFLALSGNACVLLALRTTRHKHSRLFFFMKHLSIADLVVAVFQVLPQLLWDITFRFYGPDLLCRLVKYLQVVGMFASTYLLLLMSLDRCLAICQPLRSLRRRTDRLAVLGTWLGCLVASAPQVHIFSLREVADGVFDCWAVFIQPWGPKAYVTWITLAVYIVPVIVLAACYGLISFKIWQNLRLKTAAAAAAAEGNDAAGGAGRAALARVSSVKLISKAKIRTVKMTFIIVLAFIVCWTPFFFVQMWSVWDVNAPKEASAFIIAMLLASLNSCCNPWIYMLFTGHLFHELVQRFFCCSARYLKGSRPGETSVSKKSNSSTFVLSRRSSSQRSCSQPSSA
The experiment can be described thus: [³H]Oxytocin radioligand binding assay, crude membrane preparation of uteri from DES-treated rats. To be noted: for inhibition at 1 µM: read-out: inhibition at 1,000 nM; for inhibition at 0.1 µM: read-out: inhibition at 100 nM.

The mark [1] stands for this setting: competition with 1 nM [³H]OT, 60 minutes, 22°C, concentration that inhibits 50% of OT, read-out: IC50.

Description: The high affinity binding of [³H] Oxytocin (OT)([tyrosyl, 3,5-[³H]OT; 30-60 Ci/mmol; New England Nuclear. Boston, MA) to uterine OT receptors was based on an assay (Fuchs, A-R; Fuchs, F; Soloff, MS. 1985 J. Clin. Endocrinol. Metab. 60:37) using a crude membrane preparation of uteri taken from diethylstilbestrol dipropionate (DES)-treated (0.3 mg/kg, ip; 18-24) rats. Competition studies were conducted at equilibrium (60 minutes; 22°C) using 1 nM[³H]OT in the following assay buffer: 50 mM Tris-HCl, 5 mM MgCl₂, and 0.1% BSA, pH 7.4. Nonspecific binding (10% of the total binding) was determined using 1 mM unlabeled OT and the binding reaction was terminated by filtration through glass fiber filters using a cell harvester (model 7019, Skatron, Inc., Sterling, VA). IC₅₀ (the concentration of tested compound that inhibits 50% of OT) was reported, unless otherwise noted.

The term pIC50 denotes the negative decadic logarithm of the IC50, by convention in mol/L. Molecule `Cc1ccccc1N1CCN(S(=O)(=O)C[C@]23CC[C@H](C[C@@H]2NC(=O)[C@H](CCS(C)(=O)=O)NC(=O)Cc2c[nH]cn2)C3(C)C)CC1` [Example 37, 1-((7,7-Dimethyl-2-endo-(2s-(imidazol-4-ylacetyl-amino)-4-(methyl-sulfonyl)butyramido)-bicyclo(2.2.1)-heptan-1-yl)methanesulfonyl)-4-(2-methylphenyl)-piperazine] had a pIC50 of 8.92. For `Cc1ccccc1N1CCN(S(=O)(=O)C[C@]23CC[C@H](C[C@@H]2NC(=O)[C@H](CCS(C)(=O)=O)N(C)C)C3(C)C)CC1` [Example 38, 1-((7,7-Dimethyl-2-endo-(2s-(dimethylamino)-4-(methylsulfonyl)butyramido)-bicyclo(2.2.1)heptan-1-yl)methanesulfonyl)-4-(2-methyl-phenyl)piperazine], under setting [1], the pIC50 is 8.27. Broadly, the inhibition is the change of the read-out against control, counted positive when it falls. Consider `Cc1ccccc1N1CCN(S(=O)(=O)C[C@]23CC[C@H](C[C@@H]2NC(=O)OCc2ccccc2)C3(C)C)CC1` [Example 39, 1-((7,7-Dimethyl-2-endo-benzyloxycarbonylamino-bicyclo(2.2.1)heptan-1-yl)methanesulfonyl)-4-(2-methyl-phenyl)piperazine], for which the inhibition at 1 µM turned out to be 54%. Still for that read-out and setting: the result for `Cc1ccccc1N1CCN(S(=O)(=O)C[C@]23CC[C@H](C[C@@H]2N(C)C(=O)OCc2ccccc2)C3(C)C)CC1` [Example 40, 1-((7,7-Dimethyl-2-endo-methyl(benzyloxy-carbonyl)amino-bicyclo(2.2.1)-heptan-1-yl)methanesulfonyl)4-(2-methylphenyl)piperazine] reads 35%.

For `Cc1ccccc1N1CCN(S(=O)(=O)C[C@]23CC[C@H](C[C@@H]2N(C)C(=O)[C@@H](N)CCS(C)(=O)=O)C3(C)C)CC1` [Example 41, 1-((7,7-dimethyl-2-endo-methyl(2S-amino-4-(methylsulfonyl)butanoyl)amino-bicyclo(2.2.1)heptan-1-yl)methanesulfonyl)-4-(2-methylphenyl)-piperazine], the pIC50 under setting [1] is 8.20.

On to `Cc1ccccc1N1CCN(S(=O)(=O)C[C@]23CC[C@H](C[C@@H]2N(C)C(=O)[C@H](CCS(C)(=O)=O)N(C)C)C3(C)C)CC1` [Example 42, 1-((7,7-Dimethyl-2-endo-methyl(2s-dimethylamino-4-(methylsulfonyl)-butanoyl)amino-bicyclo(2.2.1)heptan-1-yl)methanesulfonyl)-4-(2-methylphenyl)-piperazine], for which the pIC50 under setting [1] was 8.04. Regarding `Cc1ccccc1N1CCN(S(=O)(=O)C[C@]23CC[C@H](C[C@@H]2NC(=O)Cc2c[nH]cn2)C3(C)C)CC1` [Example 43], the pIC50 under setting [1] is 6.96.

With `Cc1ccccc1N1CCN(S(=O)(=O)C[C@]23CC[C@H](C[C@@H]2NC(=O)C(C)c2c[nH]cn2)C3(C)C)CC1` (stereo partly drawn) [Example 44, 1-((7,7-Dimethyl-2-endo-(2-(4-imidazolyl)propanoyl)-amino-bicyclo-(2.2.1)heptan-1-yl)methanesulfonyl)-4-(2-methylphenyl)piperazine], under setting [1], the pIC50 is 7.59.

Take `CCOC(=O)CN1CCCC(C(=O)NCC(C)C2(O)CC3CCC2(CS(=O)(=O)N2CCN(c4ccccc4C)CC2)C3(C)C)C1` (stereo not drawn) [Example 50, 1-((7,7-Dimethyl-2-exo-hydroxy-2-endo-2-(1-(3-(1-ethoxycarbonyl-methyl)piperidinylcar-bonyl)amino)propyl-bicyclo(2.2.1)heptan-1-yl)methanesulfonyl)-4-(2-methylphenyl)piperazine]: the inhibition at 0.1 µM was 66%. Same read-out and setting: the result for `CCOC(=O)CN1CCCC1C(=O)NCC(C)C1(O)CC2CCC1(CS(=O)(=O)N1CCN(c3ccccc3C)CC1)C2(C)C` (stereo not drawn) [Example 52, 1-((7,7-Dimethyl-2-exo-hydroxy-2-endo-2-(1-(l-n-(ethoxycarboxymethyl)-prolyl)amino)propyl-bicyclo-(2.2.1)heptan-1-yl)methanesulfonyl)-4-(2-methylphenyl)piperazine] reads 66%; that for `CCOC(=O)CN1CCC(C(=O)NCC(C)C2(O)CC3CCC2(CS(=O)(=O)N2CCN(c4ccccc4C)CC2)C3(C)C)CC1` (stereo not drawn) [Example 57, 1-((7,7-Dimethyl-2-exo-hydroxy-2-endo-2-(1-(3-(1-ethoxycarbonyl-methyl)piperidinylcar-bonyl)amino)propyl-bicyclo(2.2.1)heptan-1-yl)methanesulfonyl)-4-(2-methylphenyl)piperazine], 66%. On to “Two isomers of 1-((7,7-dimethyl-2-exo-hydroxy-2-endo-2-(1-(3-methoxycarbonyl)-2-pyrrolidinon-1-yl)propylbicyclo-(2.2.1)heptan-1-yl)methanesulfonyl)-4-(2-methylphenyl)piperazine [Example 26]”, for which, under setting [1], the pIC50 was 7.46. A word on the pKd: it is the negative decadic logarithm of the Kd, by convention in mol/L. Under “saturation binding assay, uterus”, [³H]OT [reference compound] had a pKd of 9.15.
